Assay results as given in patent US8283361B2 (AstraZeneca AB, priority 2008, dated 2012).

molecular target: S. aureus GyrB ATPase (Staphylococcus aureus, UniProt P0A0K8); experiment: biochemical; settings: compound at 1 μM; one value per test if tested more than once; 1 µM
Protocol: S. aureus GyrB ATPase Inhibition Activity: Compounds may be tested for inhibition of S. aureus GyrB ATPase activity using an ammonium molybdate/malachite green-based phosphate detection assay (Lanzetta, P. A., L. J. Alvarez, P. S. Reinach, and O. A. Candia, 1979, 100: 95-97). Assays can be performed in multiwell plates in 30 μl reactions containing: 50 mM Hepes buffer pH 7.5, 75 mM ammonium acetate, 8.0 mM magnesium chloride, 0.5 mM ethylenediaminetetraacetic acid, 5% glycerol, 1.0 mM 1,4-Dithio-DL-threitol, 200 nM bovine serum albumin, 1.0 μg/m1 sheared salmon sperm DNA, 250 pM E. coli GyrA, 250 pM S. aureus GyrB, 250 μM ATP, and compound in dimethylsulfoxide. Reactions can be quenched with 30 μl of ammonium molybdate/malachite green detection reagent containing 1.2 mM malachite green hydrochloride, 8.5 mM ammonium molybdate tetrahydrate, and 1 M hydrochloric acid. […] An IC50 measurement of compound potency for each compound can be determined from reactions performed in the presence of 10 different compound concentrations.

Chain of S. aureus GyrB ATPase (P0A0K8 whole entry): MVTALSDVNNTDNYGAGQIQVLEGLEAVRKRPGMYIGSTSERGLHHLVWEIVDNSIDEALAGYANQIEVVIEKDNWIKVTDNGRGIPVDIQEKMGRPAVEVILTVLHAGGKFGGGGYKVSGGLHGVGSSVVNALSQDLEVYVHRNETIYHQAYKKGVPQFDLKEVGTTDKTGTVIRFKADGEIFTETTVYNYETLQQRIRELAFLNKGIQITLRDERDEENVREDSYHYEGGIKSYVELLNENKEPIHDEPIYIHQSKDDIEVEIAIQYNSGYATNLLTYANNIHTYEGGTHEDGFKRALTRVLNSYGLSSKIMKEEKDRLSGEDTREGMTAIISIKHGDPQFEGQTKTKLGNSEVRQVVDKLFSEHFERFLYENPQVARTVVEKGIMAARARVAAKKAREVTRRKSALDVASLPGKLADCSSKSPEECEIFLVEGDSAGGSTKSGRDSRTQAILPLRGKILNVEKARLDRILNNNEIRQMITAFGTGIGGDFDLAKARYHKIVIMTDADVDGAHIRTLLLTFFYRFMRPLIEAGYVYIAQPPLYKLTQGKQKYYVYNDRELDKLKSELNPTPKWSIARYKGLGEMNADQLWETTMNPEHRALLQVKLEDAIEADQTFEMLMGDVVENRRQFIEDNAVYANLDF
Chain of S. aureus GyrB ATPase (P0AES4 whole entry, further chain): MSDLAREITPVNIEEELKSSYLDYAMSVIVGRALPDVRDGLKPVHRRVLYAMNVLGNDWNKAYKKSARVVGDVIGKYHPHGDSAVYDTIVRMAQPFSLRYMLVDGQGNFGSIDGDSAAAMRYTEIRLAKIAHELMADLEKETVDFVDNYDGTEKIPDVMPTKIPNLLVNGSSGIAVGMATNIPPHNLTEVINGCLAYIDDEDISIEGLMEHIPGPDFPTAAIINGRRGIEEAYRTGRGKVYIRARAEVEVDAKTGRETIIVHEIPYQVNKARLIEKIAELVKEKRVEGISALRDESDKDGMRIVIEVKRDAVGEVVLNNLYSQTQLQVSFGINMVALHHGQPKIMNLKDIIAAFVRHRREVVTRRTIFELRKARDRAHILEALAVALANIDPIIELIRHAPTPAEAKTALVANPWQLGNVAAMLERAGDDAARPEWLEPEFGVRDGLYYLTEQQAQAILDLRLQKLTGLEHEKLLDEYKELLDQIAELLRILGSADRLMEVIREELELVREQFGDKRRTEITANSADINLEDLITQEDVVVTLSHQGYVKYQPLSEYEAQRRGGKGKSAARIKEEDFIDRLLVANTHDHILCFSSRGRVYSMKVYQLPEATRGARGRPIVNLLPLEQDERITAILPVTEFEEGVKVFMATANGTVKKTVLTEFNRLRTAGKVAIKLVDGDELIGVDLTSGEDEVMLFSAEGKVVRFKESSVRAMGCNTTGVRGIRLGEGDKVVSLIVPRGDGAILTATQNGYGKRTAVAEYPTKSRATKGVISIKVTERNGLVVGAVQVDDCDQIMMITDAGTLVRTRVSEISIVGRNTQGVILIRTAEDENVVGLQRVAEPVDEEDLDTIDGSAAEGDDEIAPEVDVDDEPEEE

Structure (SMILES) | % Inhibition of S. aureus GyrB ATPase [%]
CCNC(=O)Nc1cc(-c2nc(C(F)(F)F)cs2)c(-c2ccc3c(=O)c(C(=O)NC)cn(CC)c3c2)cn1 [Example 33, 1-ethyl-7-(6-(3-ethylureido)-4-(4-(trifluoromethyl)thiazol-2-yl)pyridin-3-yl)-N-methyl-4-oxo-1,4-dihydroquinoline-3-carboxamide] | 109

same assay, conditions: compound at 1 μM; one value per test if tested more than once; read-out: % Inhibition of S. aureus GyrB ATPase

Structure (SMILES) | inhibition at 1 µM [%]
CCNC(=O)Nc1cc(-c2nc(C(F)(F)F)cs2)c(-c2ccc3c(=O)c(C(=O)NC)cn(CC)c3c2)cn1 [Example 33, 1-ethyl-7-(6-(3-ethylureido)-4-(4-(trifluoromethyl)thiazol-2-yl)pyridin-3-yl)-N-methyl-4-oxo-1,4-dihydroquinoline-3-carboxamide] | 97
CCNC(=O)Nc1cc(-c2nc(C(F)(F)F)cs2)c(-c2ccc3c(c2)c(=O)c(C(=O)NC)cn3CC)cn1 [Example 34, 1-ethyl-6-(6-(3-ethylureido)-4-(4-(trifluoromethyl)thiazol-2-yl)pyridin-3-yl)-N-methyl-4-oxo-1,4-dihydroquinoline-3-carboxamide] | 100
CCNC(=O)Nc1cc(-c2nc(CC)cs2)c(-c2ccc3c(=O)c(C(=O)NC)cn(CC)c3c2)cn1 [Example 36, 1-ethyl-7-(4-(4-ethylthiazol-2-yl)-6-(3-ethylureido)pyridin-3-yl)-N-methyl-4-oxo-1,4-dihydroquinoline-3-carboxamide] | 64
CCNC(=O)Nc1cc(-c2nc(CC)cs2)c(-c2ccc3c(c2)c(=O)c(C(=O)NC)cn3CC)cn1 [Example 37, 1-ethyl-6-(4-(4-ethylthiazol-2-yl)-6-(3-ethylureido)pyridin-3-yl)-N-methyl-4-oxo-1,4-dihydroquinoline-3-carboxamide] | 96
CCNC(=O)Nc1cc(-c2nc(CC)cs2)c(-c2cc3c4c(c2)c(=O)c(C(=O)NC)cn4CCO3)cn1 [Example 38, 9-(4-(4-ethylthiazol-2-yl)-6-(3-ethylureido)pyridin-3-yl)-N-methyl-7-oxo-3,7-dihydro-2H-[1,4]oxazino[2,3,4-ij]quinoline-6-carboxamide] | 99
CCNC(=O)Nc1cc(-c2nc(-c3ccccc3)cs2)c(-c2ccc3c(=O)c(C(=O)NC)cn(CC)c3c2)cn1 [Example 39, 1-ethyl-7-(6-(3-ethylureido)-4-(4-phenylthiazol-2-yl)pyridin-3-yl)-N-methyl-4-oxo-1,4-dihydroquinoline-3-carboxamide] | 101
CCNC(=O)Nc1cc(-c2nc(-c3ccccc3)cs2)c(-c2cc3c4c(c2)c(=O)c(C(=O)NC)cn4CCO3)cn1 [Example 41, 9-(6-(3-ethylureido)-4-(4-phenylthiazol-2-yl)pyridin-3-yl)-N-methyl-7-oxo-3,7-dihydro-2H-[1,4]oxazino[2,3,4-ij]quinoline-6-carboxamide] | 105
CCNC(=O)Nc1cc(-c2nc(C(F)(F)F)cs2)c(-c2ccc3c(=O)c(C(=O)OCC)cn(CC)c3c2)cn1 [Example 42, Ethyl 1-ethyl-7-(6-(3-ethylureido)-4-(4-trifluoromethylthiazol-2-yl)pyridin-3-yl)-4-oxo-1,4-dihydroquinoline-3-carboxylate] | 113
CCNC(=O)Nc1cc(-c2nc(-c3ccccc3)cs2)c(-c2ccc3c(=O)c(C(=O)OCC)cn(CC)c3c2)cn1 [Example 44, ethyl 1-ethyl-7-(6-(3-ethylureido)-4-(4-phenylthiazol-2-yl)pyridin-3-yl)-4-oxo-1,4-dihydroquinoline-3-carboxylate] | 98
CCNC(=O)Nc1cc(-c2nc(C(F)(F)F)cs2)c(-c2cc3c4c(c2)c(=O)c(C(=O)OCC)cn4CCO3)cn1 [Example 48, ethyl 9-(6-(3-ethylureido)-4-(4-trifluoromethylthiazol-2-yl)pyridin-3-yl)-7-oxo-3,7-dihydro-2H-[1,4]oxazino[2,3,4-ij]quinoline-6-carboxylate] | 106
CCNC(=O)Nc1cc(-c2nc(C(F)(F)F)cs2)c(-c2ccc3c(c2)c(=O)c(C(=O)O)cn3[C@@H](C)CO)cn1 [Example 71, (S)-6-(6-(3-ethylureido)-4-(4-(trifluoromethyl)thiazol-2-yl)pyridin-3-yl)-1-(1-hydroxypropan-2-yl)-4-oxo-1,4-dihydroquinoline-3-carboxylic acid] | 107
CCNC(=O)Nc1cc(-c2nc(C(F)(F)F)cs2)c(-c2ccc3c(c2)c(=O)c(C(=O)O)cn3[C@H](C)CO)cn1 [Example 72, (R)-6-(6-(3-ethylureido)-4-(4-(trifluoromethyl)thiazol-2-yl)pyridin-3-yl)-1-(1-hydroxypropan-2-yl)-4-oxo-1,4-dihydroquinoline-3-carboxylic acid] | 103
CCNC(=O)Nc1cc(-c2nc(C(F)(F)F)cs2)c(-c2ccc3c(c2)c(=O)c(C(=O)O)cn3[C@H](CO)[C@@H](C)O)cn1 [Example 73, 1-((2R,3R)-1,3-dihydroxybutan-2-yl)-6-(6-(3-ethylureido)-4-(4-(trifluoromethyl)thiazol-2-yl)pyridin-3-yl)-4-oxo-1,4-dihydroquinoline-3-carboxylic acid] | 105
CCNC(=O)Nc1cc(-c2nc(C(F)(F)F)cs2)c(-c2ccc3c(c2)c(=O)c(C(=O)O)cn3[C@H](CO)Cc2ccccc2)cn1 [Example 74, (S)-6-(6-(3-ethylureido)-4-(4-(trifluoromethyl)thiazol-2-yl)pyridin-3-yl)-1-(1-hydroxy-3-phenylpropan-2-yl)-4-oxo-1,4-dihydroquinoline-3-carboxylic acid] | 103
CCNC(=O)Nc1cc(-c2nc(C(F)(F)F)cs2)c(-c2ccc3c(c2)c(=O)c(C(=O)O)cn3C(CO)CO)cn1 [Example 75, 1-(1,3-dihydroxypropan-2-yl)-6-(6-(3-ethylureido)-4-(4-(trifluoromethyl)thiazol-2-yl)pyridin-3-yl)-4-oxo-1,4-dihydroquinoline-3-carboxylic acid] | 102
CCNC(=O)Nc1cc(-c2nc(C(F)(F)F)cs2)c(-c2ccc3c(c2)c(=O)c(C(=O)O)cn3[C@@H](CO)C(C)(C)C)cn1 [Example 76, (R)-6-(6-(3-ethylureido)-4-(4-(trifluoromethyl)thiazol-2-yl)pyridin-3-yl)-1-(1-hydroxy-3,3-dimethylbutan-2-yl)-4-oxo-1,4-dihydroquinoline-3-carboxylic acid] | 110
CCNC(=O)Nc1cc(-c2nc(C(F)(F)F)cs2)c(-c2ccc3c(c2)c(=O)c(C(=O)O)cn3[C@@H](CO)Cc2ccc(O)cc2)cn1 [Example 77, (R)-6-(6-(3-ethylureido)-4-(4-(trifluoromethyl)thiazol-2-yl)pyridin-3-yl)-1-(1-hydroxy-3-(4-hydroxyphenyl)propan-2-yl)-4-oxo-1,4-dihydroquinoline-3-carboxylic acid] | 110
CCNC(=O)Nc1cc(-c2nc(C(F)(F)F)cs2)c(-c2ccc3c(c2)c(=O)c(C(=O)O)cn3[C@H](CO)C2CCCCC2)cn1 [Example 78, (S)-1-(1-cyclohexyl-2-hydroxyethyl)-6-(6-(3-ethylureido)-4-(4-(trifluoromethyl)thiazol-2-yl)pyridin-3-yl)-4-oxo-1,4-dihydroquinoline-3-carboxylic acid] | 102
CCNC(=O)Nc1cc(-c2nc(C(F)(F)F)cs2)c(-c2ccc3c(c2)c(=O)c(C(=O)O)cn3[C@H](CC)CO)cn1 [Example 79, (R)-6-(6-(3-ethylureido)-4-(4-(trifluoromethyl)thiazol-2-yl)pyridin-3-yl)-1-(1-hydroxybutan-2-yl)-4-oxo-1,4-dihydroquinoline-3-carboxylic acid] | 97
CCNC(=O)Nc1cc(-c2nc(C(F)(F)F)cs2)c(-c2ccc3c(c2)c(=O)c(C(=O)O)cn3C(CO)C2CCOCC2)cn1 (stereo not shown) [Example 80, 6-(6-(3-ethylureido)-4-(4-(trifluoromethyl)thiazol-2-yl)pyridin-3-yl)-1-(-hydroxy-1-(tetrahydro-H-pyran-4-yl)ethyl)-4-oxo-1,4-dihydroquinoline-3-carboxylic acid] | 96
CCNC(=O)Nc1cc(-c2nc(C(F)(F)F)cs2)c(-c2ccc3c(c2)c(=O)c(C(=O)O)cn3[C@H](CO)C(C)(C)C)cn1 [Example 81, 6-{6-[(ethylcarbamoyl)amino]-4-[4-(trifluoromethyl)-1,3-thiazol-2-yl]pyridin-3-yl}-1-[(1S)-1-(hydroxymethyl)-2,2-dimethylpropyl]-4-oxo-1,4-dihydroquinoline-3-carboxylic acid] | 96
CCNC(=O)Nc1cc(-c2nc(C(F)(F)F)cs2)c(-c2ccc3c(c2)c(=O)c(C(=O)O)cn3[C@H](CO)C(C)C)cn1 [Example 82, 6-{6-[(ethylcarbamoyl)amino]-4-[4-(trifluoromethyl)-1,3-thiazol-2-yl]pyridin-3-yl}-1-[(1S)-1-(hydroxymethyl)-2-methylpropyl]-4-oxo-1,4-dihydroquinoline-3-carboxylic acid] | 111
CCNC(=O)Nc1cc(-c2nc(C(F)(F)F)cs2)c(-c2ccc3c(c2)c(=O)c(C(=O)O)cn3[C@H](CO)CC(C)C)cn1 [Example 83, (S)-6-(6-(3-ethylureido)-4-(4-(trifluoromethyl)thiazol-2-yl)pyridin-3-yl)-1-(1-hydroxy-4-methylpentan-2-yl)-4-oxo-1,4-dihydroquinoline-3-carboxylic acid] | 96
CCCNC(=O)Nc1cc(-c2nc(C(F)(F)F)cs2)c(-c2ccc3c(c2)c(=O)c(C(=O)O)cn3[C@H](CO)C(C)(C)C)cn1 [Example 84, (S)-1-(1-hydroxy-3,3-dimethylbutan-2-yl)-4-oxo-6-(6-(3-propylureido)-4-(4-(trifluoromethyl)thiazol-2-yl)pyridin-3-yl)-1,4-dihydroquinoline-3-carboxylic acid] | 95
